{
  "source": "patent US20100267561A1",
  "about": "“HERBICIDAL PYRIDAZINONE DERIVATIVES” (priority 2007, published 2010)",
  "assay_in_all_cases": "Test B pre-/postemergence plant response",
  "type_in_all_cases": "in vivo",
  "key": {"[1]": {"test_system": "common ragweed (Ambrosia elation)", "conditions": "Preemergence", "method_in_brief": "(§1)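 Preemergence and postemergence (plants 2-18 cm, 1- to 4-leaf stage) applications used test chemicals in a non-phytotoxic solvent with surfactant. Plants were held in a greenhouse 13 to 15 days, then rated visually against controls on a 0-100 scale (0 no effect, 100 complete control).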"}, "[2]": {"test_system": "morningglory (Ipomoea coccinea)", "conditions": "Preemergence", "method_in_brief": "as §1"}, "[3]": {"test_system": "green foxtail (Setaria viridis)", "conditions": "Preemergence", "method_in_brief": "as §1"}, "[4]": {"test_system": "lambsquarters (Chenopodium album)", "conditions": "Preemergence", "method_in_brief": "as §1"}, "[5]": {"test_system": "surinam grass (Brachiaria decumbens)", "conditions": "Preemergence; for Surinam Grass plant response rating: scale 0 to 100", "method_in_brief": "as §1"}, "[6]": {"test_system": "Italian ryegrass (Lolium multiflorum)", "conditions": "Preemergence", "method_in_brief": "as §1"}, "[7]": {"test_system": "Russian thistle (Salsola iberica)", "conditions": "Preemergence", "method_in_brief": "as §1"}, "[8]": {"test_system": "eastern black (E.B.) nightshade (Solanum ptycanthum)", "conditions": "Preemergence", "method_in_brief": "as §1"}, "[9]": {"test_system": "catchweed bedstraw (Galium aparine)", "conditions": "Preemergence", "method_in_brief": "as §1"}, "[10]": {"test_system": "cocklebur (Xanthium strumarium)", "conditions": "Preemergence", "method_in_brief": "as §1"}, "corn (Zea mays)": {"test_system": "corn (Zea mays)", "conditions": "Preemergence", "method_in_brief": "as §1"}, "wild oat (Avena fatua)": {"test_system": "wild oat (Avena fatua)", "conditions": "Preemergence", "method_in_brief": "as §1"}, "[11]": {"test_system": "yellow nutsedge (Cyperus esculentus)", "conditions": "Preemergence", "method_in_brief": "as §1"}, "[12]": {"conditions": "31 g ai/ha, scale 0 to 100 (0 no effect, 100 complete control)"}, "[13]": {"conditions": "31 g ai/ha, 0 to 100 scale, 0 no effect, 100 complete control"}},
  "data": [
    {"compound": "Cc1cc(-c2ccc(Cl)cc2)nn1-c1c(OS(=O)(=O)c2ccccc2[N+](=O)[O-])cnn(C)c1=O", "note": "[Compound 51]", "values": [
      {"measurement": "Plant response rating, Ragweed", "setting": "[1]; [12]", "value": 0},
      {"measurement": "Plant response rating, Ragweed", "setting": "[1]; 62 g ai/ha, scale 0 to 100", "value": 0},
      {"measurement": "Ragweed plant response rating", "setting": "[1]; 8 g ai/ha, scale 0 to 100", "value": 0},
      {"measurement": "Ragweed plant response rating", "setting": "[1]; 16 g ai/ha, scale 0 to 100", "value": 0},
      {"measurement": "Plant response rating, Morningglory", "setting": "[2]; [12]", "value": 0},
      {"measurement": "Plant response rating, Morningglory", "setting": "[2]; 62 g ai/ha, scale 0 to 100", "value": 0},
      {"measurement": "Morningglory plant response rating", "setting": "[2]; 8 g ai/ha, scale 0 to 100", "value": 0},
      {"measurement": "Morningglory plant response rating", "setting": "[2]; 16 g ai/ha, scale 0 to 100", "value": 0},
      {"measurement": "Plant response rating, Foxtail, Green", "setting": "[3]; [13]", "value": 98},
      {"measurement": "Plant response rating, Foxtail, Green", "setting": "[3]; 62 g ai/ha, scale 0 to 100", "value": 100},
      {"measurement": "Foxtail, Green plant response rating", "setting": "[3]; 8 g ai/ha, scale 0 to 100", "value": 50},
      {"measurement": "Foxtail, Green plant response rating", "setting": "[3]; 16 g ai/ha, scale 0 to 100", "value": 90},
      {"measurement": "Plant response rating, Lambsquarters", "setting": "[4]; [13]", "value": 0},
      {"measurement": "Plant response rating, Lambsquarters", "setting": "[4]; 62 g ai/ha, scale 0 to 100", "value": 0},
      {"measurement": "Plant response rating, Surinam Grass", "setting": "[5]; [12]", "value": 90},
      {"measurement": "Plant response rating, Surinam Grass", "setting": "[5]; 62 g ai/ha, 0 to 100 scale, 0 no effect, 100 complete control", "value": 100},
      {"measurement": "Surinam Grass plant response rating", "setting": "[5]; 8 g ai/ha", "value": 30},
      {"measurement": "Surinam Grass plant response rating", "setting": "[5]; 16 g ai/ha", "value": 75},
      {"measurement": "Plant response rating, Ryegrass, Italian", "setting": "[6]; [12]", "value": 100},
      {"measurement": "Plant response rating, Ryegrass, Italian", "setting": "[6]; 62 g ai/ha, scale 0 to 100", "value": 100},
      {"measurement": "Ryegrass, Italian plant response rating", "setting": "[6]; 8 g ai/ha, scale 0 to 100", "value": 100},
      {"measurement": "Ryegrass, Italian plant response rating", "setting": "[6]; 16 g ai/ha, scale 0 to 100", "value": 100},
      {"measurement": "Plant response rating, Russian Thistle", "setting": "[7]; [12]", "value": 0},
      {"measurement": "Plant response rating, Russian Thistle", "setting": "[7]; 62 g ai/ha, scale 0 to 100", "value": 0},
      {"measurement": "Russian Thistle plant response rating", "setting": "[7]; 8 g ai/ha, scale 0 to 100", "value": 0},
      {"measurement": "Russian Thistle plant response rating", "setting": "[7]; 16 g ai/ha, scale 0 to 100", "value": 0},
      {"measurement": "Plant response rating, Nightshade, E. B.", "setting": "[8]; [12]", "value": 0},
      {"measurement": "Plant response rating, Nightshade, E. B.", "setting": "[8]; 62 g ai/ha, scale 0 to 100", "value": 0},
      {"measurement": "Plant response rating, Galium", "setting": "[9]; [13]", "value": 0},
      {"measurement": "Plant response rating, Galium", "setting": "[9]; 62 g ai/ha, scale 0 to 100", "value": 0},
      {"measurement": "Galium plant response rating", "setting": "[9]; 8 g ai/ha, scale 0 to 100", "value": 0},
      {"measurement": "Galium plant response rating", "setting": "[9]; 16 g ai/ha, scale 0 to 100", "value": 0},
      {"measurement": "Plant response rating, Cocklebur", "setting": "[10]; 16 g ai/ha, scale 0 to 100 (0 no effect, 100 complete control)", "value": 0},
      {"measurement": "Plant response rating, Cocklebur", "setting": "[10]; [13]", "value": 0},
      {"measurement": "Plant response rating, Cocklebur", "setting": "[10]; 62 g ai/ha, scale 0 to 100", "value": 0},
      {"measurement": "Cocklebur plant response rating", "setting": "[10]; 8 g ai/ha, scale 0 to 100", "value": 0},
      {"measurement": "Plant response rating, Corn", "setting": "corn (Zea mays); [13]", "value": 60},
      {"measurement": "Plant response rating, Corn", "setting": "corn (Zea mays); 62 g ai/ha, scale 0 to 100", "value": 80},
      {"measurement": "Plant response rating, Oat, Wild", "setting": "wild oat (Avena fatua); [12]", "value": 80},
      {"measurement": "Plant response rating, Oat, Wild", "setting": "wild oat (Avena fatua); 62 g ai/ha, scale 0 to 100", "value": 90},
      {"measurement": "Oat, Wild plant response rating", "setting": "wild oat (Avena fatua); 8 g ai/ha, scale 0 to 100", "value": 0},
      {"measurement": "Oat, Wild plant response rating", "setting": "wild oat (Avena fatua); 16 g ai/ha, scale 0 to 100", "value": 10},
      {"measurement": "Plant response rating, Nutsedge, Yellow", "setting": "[11]; [12]", "value": 0},
      {"measurement": "Plant response rating, Nutsedge, Yellow", "setting": "[11]; 62 g ai/ha, scale 0 to 100", "value": 0},
      {"measurement": "Nutsedge, Yellow plant response rating", "setting": "[11]; 8 g ai/ha, scale 0 to 100", "value": 0},
      {"measurement": "Nutsedge, Yellow plant response rating", "setting": "[11]; 16 g ai/ha, scale 0 to 100", "value": 0}
    ]}
  ]
}
